Values of other authors in patent US20070249572A1, “Systems and methods for the delivery of corticosteroids” (Verus Pharmaceuticals, Inc., priority 2005, published 2007).

solubility in alcohols (alcohols): readily soluble in alcohols
solubility in water (water): virtually insoluble in water
Structure (SMILES): CCCC1O[C@@H]2C[C@H]3[C@@H]4CCC5=CC(=O)C=C[C@]5(C)[C@H]4[C@@H](O)C[C@]3(C)[C@]2(C(=O)CO)O1 (stereo partly drawn) [budesonide, (R,S)-llβ,16α,17,21-tetrahydroxypregna-1,4-diene-3,20-dione cyclic 16,17-acetal with butyraldehyde]
